We go through eleven compounds from PubChem BioAssay (NCI).

Among the test systems are CAKI-1 renal; EKVX NSCLC; HCT-15 colon; HL-60(TB) leukemia; HOP-62 NSCLC; IGROV1 ovarian; M14 melanoma; MALME-3M melanoma; MDA-N; MOLT-4 leukemia; NCI-H522 lung; OVCAR-4 ovarian; RXF 393 renal; SF-539 CNS; SK-OV-3 ovarian; SNB-75 CNS; TK-10 renal; UACC-62 melanoma; UO-31 renal.
What all share (experiment): DTP human tumour cell line panel, 48 h

By TGI is commonly meant the concentration at which net growth stops. High values mean less potent growth arrest, low ones more potent growth arrest. The GI50 is the concentration giving 50% growth inhibition.

Each structure is given as a SMILES string. “And” between values parts separate entries of the source, which are not always exact repeats. Identical values can stand only once.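 Test compounds were applied to cells in 96-well plates for 48 hours at 5 doses. The concentration for 50% growth inhibition is given as GI50. TGI: total growth inhibition.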

Turning to `Cc1ccc(C(=O)Nc2ccc(CP(=O)(O)O)cc2)cc1NC(=O)Nc1cc(C(=O)Nc2ccc(CP(=O)(O)O)cc2)ccc1C`, the TGI with CAKI-1 renal, in the experiment with EKVX NSCLC, with HCT-15 colon, in the experiment with HL-60(TB) leukemia, in the experiment on HOP-62 NSCLC and in the experiment with IGROV1 ovarian was > 100 µM in each case. For the same compound, the TGI in the experiment on M14 melanoma, in the experiment with MALME-3M melanoma, in the experiment on MDA-N, with MOLT-4 leukemia, in the experiment on NCI-H522 lung and in the experiment on OVCAR-4 ovarian was > 100 µM in each case. Also, the concentration for total growth inhibition (TGI) in the experiment with RXF 393 renal, with SF-539 CNS, with SK-OV-3 ovarian, with SNB-75 CNS, in the experiment on TK-10 renal and in the experiment on UACC-62 melanoma was > 100 µM in each case. In the experiment with UO-31 renal, the TGI was > 100 µM.
Turning to `CN(CCNC(=O)c1cc(-c2ccccc2)nc2ccccc12)CCNC(=O)c1cc(-c2ccccc2)nc2ccccc12`, the TGI in the experiment with CAKI-1 renal was > 100 µM; in the experiment with EKVX NSCLC it was > 87.8 µM; in the experiment with HCT-15 colon it was > 100 µM; in the experiment on HL-60(TB) leukemia, 24.9 µM; with HOP-62 NSCLC, > 100 µM; in the experiment on IGROV1 ovarian it was > 100 µM. In addition, the concentration for total growth inhibition (TGI) is 4.66 µM in the experiment with M14 melanoma; 4.09 µM in the experiment on MALME-3M melanoma; 32.2 µM in the experiment on MDA-N; > 100 µM in the experiment on MOLT-4 leukemia; > 47.5 µM in the experiment on NCI-H522 lung; > 100 µM with OVCAR-4 ovarian. Moreover, the TGI was > 57.7 µM in the experiment with RXF 393 renal; 21.3 µM in the experiment on SF-539 CNS; > 100 µM in the experiment with SK-OV-3 ovarian; 39.9 µM with SNB-75 CNS; > 100 µM with TK-10 renal; 39.5 µM in the experiment on UACC-62 melanoma. In the experiment with UO-31 renal, the TGI is > 100 µM.
For the compound `CC1(CC(=O)OC(C#C[Si](C)(C)C)Cc2ccccc2)OCCO1` (stereo not given), the TGI in the experiment on CAKI-1 renal, in the experiment on EKVX NSCLC, with HCT-15 colon, in the experiment on HL-60(TB) leukemia, with HOP-62 NSCLC and in the experiment on IGROV1 ovarian was > 100 µM in each case. Moreover, the TGI in the experiment with M14 melanoma, in the experiment on MALME-3M melanoma, in the experiment with MDA-N, with MOLT-4 leukemia, in the experiment with NCI-H522 lung and in the experiment on OVCAR-4 ovarian was > 100 µM throughout. For the same compound, the TGI in the experiment on RXF 393 renal, in the experiment with SF-539 CNS, in the experiment with SK-OV-3 ovarian, in the experiment with SNB-75 CNS, in the experiment on TK-10 renal and in the experiment with UACC-62 melanoma was > 100 µM in each case. Further, in the experiment on UO-31 renal, the TGI was > 100 µM.
As for `CCCCN1C(=O)C[C@H]2[C@@H]3CCc4cc(OCCN5CCCC5)ccc4[C@H]3CC[C@]2(C)C1=O`, the total growth inhibition concentration (TGI) in the experiment on CAKI-1 renal is 19.2 µM; in the experiment with EKVX NSCLC it was 30.1 µM; with HCT-15 colon, 22.4 µM; in the experiment with HL-60(TB) leukemia it was > 23.2 µM; in the experiment with HOP-62 NSCLC, 12.2 µM; with IGROV1 ovarian, 30.7 µM. Moreover, the TGI in the experiment on M14 melanoma is 3.92 µM; with MALME-3M melanoma it was 16.1 µM; with MDA-N, 15.1 µM; in the experiment with MOLT-4 leukemia, 14.3 µM; with NCI-H522 lung, 22.7 µM; with OVCAR-4 ovarian, 27.6 µM. Besides, the concentration for total growth inhibition (TGI) worked out at 4.59 µM in the experiment on RXF 393 renal; 21.4 µM in the experiment on SF-539 CNS; 27.4 µM in the experiment on SK-OV-3 ovarian; 14 µM in the experiment on SNB-75 CNS; 28.3 µM in the experiment with TK-10 renal; 10.4 µM in the experiment on UACC-62 melanoma. The compound further gave a TGI with UO-31 renal of 15.6 µM.
Regarding `CCOC(=O)C(SCCO)C(C(=O)OCC)n1cc(C)c(=O)[nH]c1=O` (stereo not given), the concentration for total growth inhibition (TGI) was 18.2 µM in the experiment with CAKI-1 renal; > 100 µM in the experiment with EKVX NSCLC; 25.7 µM in the experiment on HCT-15 colon; 4.88 µM with HL-60(TB) leukemia; > 85.6 µM in the experiment on HOP-62 NSCLC; > 65.4 µM in the experiment on IGROV1 ovarian. Moreover, the TGI in the experiment with M14 melanoma was 25 µM; in the experiment with MALME-3M melanoma it was 38.6 µM; in the experiment with MDA-N, 64.4 µM; in the experiment on MOLT-4 leukemia, 42.1 µM; in the experiment with NCI-H522 lung it was 17.6 µM; in the experiment on OVCAR-4 ovarian, > 74.7 µM. Further, the TGI in the experiment on RXF 393 renal was 43.7 µM; in the experiment on SF-539 CNS, > 65.3 µM; in the experiment on SK-OV-3 ovarian it was > 100 µM; with SNB-75 CNS, > 100 µM; in the experiment with TK-10 renal, > 82.5 µM; in the experiment on UACC-62 melanoma, 40 µM. The TGI in the experiment on UO-31 renal was > 62.8 µM.
Turning to `CN(C)C1COC2Cc3ccccc3C1O2` (stereo not given), the TGI in the experiment on CAKI-1 renal, in the experiment on EKVX NSCLC, with HCT-15 colon, with HL-60(TB) leukemia, in the experiment on HOP-62 NSCLC and with IGROV1 ovarian was > 100 µM in each case. Further, the total growth inhibition concentration (TGI) in the experiment on M14 melanoma, in the experiment with MALME-3M melanoma, with MDA-N, in the experiment with MOLT-4 leukemia, in the experiment with NCI-H522 lung and in the experiment on OVCAR-4 ovarian was > 100 µM throughout. The TGI in the experiment on RXF 393 renal is > 100 µM; in the experiment with SF-539 CNS it was > 100 µM; with SK-OV-3 ovarian, > 100 µM; in the experiment with SNB-75 CNS it was 83.5 µM and 79.7 µM; in the experiment on TK-10 renal, > 100 µM; in the experiment with UACC-62 melanoma it was > 100 µM. Besides, in the experiment with UO-31 renal, the TGI was > 100 µM. Further, the GI50 with SNB-75 CNS was 3.16 µM and 11.2 µM.
For the compound `O=c1[nH][nH]c(=S)c(=O)[nH]1`, the TGI with CAKI-1 renal, in the experiment with EKVX NSCLC, with HCT-15 colon, in the experiment on HL-60(TB) leukemia, in the experiment with HOP-62 NSCLC and with IGROV1 ovarian was > 100 µM in each case. In addition, the TGI in the experiment with M14 melanoma, with MALME-3M melanoma, in the experiment with MDA-N, in the experiment with MOLT-4 leukemia, in the experiment with NCI-H522 lung and with OVCAR-4 ovarian was > 100 µM throughout. The TGI in the experiment on RXF 393 renal, in the experiment with SF-539 CNS, in the experiment on SK-OV-3 ovarian, in the experiment on SNB-75 CNS, with TK-10 renal and in the experiment with UACC-62 melanoma was > 100 µM each time. The TGI in the experiment with UO-31 renal was > 100 µM.
Take `Nc1nc(Cl)cc(NCC2(CO)CCC(OCc3ccccc3)C2)n1` (stereo not given): the TGI in the experiment on CAKI-1 renal was 45.1 µM; in the experiment with EKVX NSCLC, 59.4 µM; with HCT-15 colon it was > 100 µM; in the experiment with HL-60(TB) leukemia, 86.8 µM; in the experiment with HOP-62 NSCLC, > 100 µM; with IGROV1 ovarian it was > 100 µM. Besides, the concentration for total growth inhibition (TGI) with M14 melanoma is 61 µM; with MALME-3M melanoma, 97.2 µM; with MDA-N it was 74.6 µM; in the experiment on MOLT-4 leukemia, 34.3 µM; in the experiment on NCI-H522 lung it was 37.9 µM; in the experiment with OVCAR-4 ovarian, 65.2 µM. For the same compound, the total growth inhibition concentration (TGI) in the experiment on RXF 393 renal is > 100 µM; in the experiment on SF-539 CNS, > 100 µM; in the experiment with SK-OV-3 ovarian, 62.4 µM; in the experiment on SNB-75 CNS it was 53.4 µM; in the experiment with TK-10 renal it was 60.5 µM; with UACC-62 melanoma, > 100 µM. In addition, in the experiment with UO-31 renal, the concentration for total growth inhibition (TGI) amounted to 99.4 µM.
In the case of `CC(=O)O[C@H]1C(=O)[C@@]2(C)[C@H]([C@H](OC(=O)c3ccncc3)[C@]3(O)C[C@H](OC(=O)[C@H](O)[C@@H](NC(=O)c4ccccc4)c4ccccc4)C(C)=C1C3(C)C)[C@]1(OC(C)=O)CO[C@@H]1C[C@@H]2O`, the TGI with CAKI-1 renal is > 25 µM; in the experiment on EKVX NSCLC, > 25 µM; in the experiment with HCT-15 colon, > 25 µM; in the experiment on HL-60(TB) leukemia it was 1.63 µM; with HOP-62 NSCLC, > 25 µM; in the experiment with IGROV1 ovarian it was > 25 µM. For the same compound, the total growth inhibition concentration (TGI) is > 25 µM in the experiment with M14 melanoma; > 25 µM in the experiment with MALME-3M melanoma; 2.1 µM in the experiment with MDA-N; > 25 µM in the experiment with MOLT-4 leukemia; 10.2 µM in the experiment on NCI-H522 lung; > 25 µM with OVCAR-4 ovarian. Besides, the concentration for total growth inhibition (TGI) is > 23.3 µM in the experiment on RXF 393 renal; 4.55 µM in the experiment with SF-539 CNS; > 25 µM in the experiment with SK-OV-3 ovarian; > 18.1 µM with SNB-75 CNS; > 25 µM with TK-10 renal; > 25 µM with UACC-62 melanoma. Also, in the experiment with UO-31 renal, the total growth inhibition concentration (TGI) is > 25 µM.
For `Cc1ccc2nc(Cl)c(/C=N/N3C(=O)/C(=C/Cc4ccco4)N=C3c3ccccc3)cc2c1`, the total growth inhibition concentration (TGI) in the experiment on CAKI-1 renal is > 100 µM; in the experiment with EKVX NSCLC it was 98.7 µM; with HCT-15 colon, > 97.1 µM; in the experiment on HL-60(TB) leukemia, 55.9 µM; in the experiment with HOP-62 NSCLC, > 100 µM; with IGROV1 ovarian it was 53.9 µM. Moreover, the TGI in the experiment on M14 melanoma is 73.9 µM; in the experiment with MALME-3M melanoma, > 100 µM; in the experiment with MDA-N, 39.6 µM; in the experiment on MOLT-4 leukemia, > 92 µM; in the experiment on NCI-H522 lung, 74 µM; in the experiment on OVCAR-4 ovarian it was > 100 µM. Besides, the TGI in the experiment on RXF 393 renal was > 100 µM; with SF-539 CNS, 88.4 µM; in the experiment on SK-OV-3 ovarian it was > 100 µM; with SNB-75 CNS it was > 92.8 µM; with TK-10 renal, 55.5 µM; in the experiment on UACC-62 melanoma, > 100 µM. Also, the TGI in the experiment on UO-31 renal was > 74.7 µM.
For `O=C1/C(=C/c2ccc(O)cc2)CCc2ccccc21`, the TGI with CAKI-1 renal was 91.5 µM; in the experiment on EKVX NSCLC it was 58.3 µM; in the experiment with HCT-15 colon it was 40.4 µM; in the experiment on HL-60(TB) leukemia, 36.7 µM; with HOP-62 NSCLC, 55.4 µM; in the experiment on IGROV1 ovarian it was > 76 µM. Further, the TGI with M14 melanoma is 36.6 µM; in the experiment with MALME-3M melanoma, 42.9 µM; with MDA-N, 57.7 µM; with MOLT-4 leukemia, 12.4 µM; with NCI-H522 lung, 5.61 µM; in the experiment with OVCAR-4 ovarian, > 74.5 µM. For the same compound, the concentration for total growth inhibition (TGI) in the experiment with RXF 393 renal was 35.1 µM; with SF-539 CNS, 38.4 µM; in the experiment with SK-OV-3 ovarian it was > 89.4 µM; with SNB-75 CNS, > 70.7 µM; in the experiment with TK-10 renal, > 95.9 µM; in the experiment on UACC-62 melanoma, 46.2 µM. In addition, the total growth inhibition concentration (TGI) in the experiment with UO-31 renal stood at 47.9 µM.
